# According to US9636343B2, “Composition for preventing and treating acetaminophen inducing hepatotoxicity containing TNP(N2-(m-Trifluorobenzyl), N6-(p-nitrobenzyl)purine) as an effective ingredient” (Korea Advanced Institute of Science and Technology, priority 2015, dated 2017):
# Assays:
# phosphorylated JNK [1] = test: JNK phosphorylation (Western blotting) in human hepatoma cell line HepG2; type: cell-based; conditions: acetaminophen together with TNP, FIG. 8
# Experimental: (§1) The regulation of response against stress caused by acetaminophen in liver cells according to the treatment of TNP was investigated.
# Particularly, the human hepatoma cell line HepG2 treated with acetaminophen and TNP by the same manner as described in Experimental Example 3 was obtained. Cell extract was prepared for protein assay. Then, SDS-PAGE and Western blotting were performed by the same manner as described in Experimental Example 5.
# phosphorylated JNK [2] = test: Stress signaling activity (JNK phosphorylation) in liver tissue of acetaminophen treated mouse model; type: in vivo; conditions: acetaminophen 500 mg/kg orally, TNP 10 mg/kg intraperitoneal, 6 hours later, FIG. 12
# Experimental: (§2) To investigate the preventing effect of TNP on the acetaminophen caused liver toxicity in the animal model of Example 7, tissues, blood, and JNK phosphorylation were analyzed.
# (§3) Particularly, acetaminophen and TNP were injected to the male mouse by the same manner as described in Example 7. 6 hours later, the liver was extracted from the mouse, followed by histopathological analysis, blood analysis (AST and ALT), and stress signaling activity (JNK) analysis. For the blood analysis, a blood sample was obtained from orbit of the mouse. The blood sample was centrifuged at 13,000 rpm for 10 minutes to obtain serum. AST and ALT analysis was performed (Idexx VetTest 8008 chemistry analyzer) with 100 μl of the serum obtained above. To investigate the stress signaling activity, the liver tissues extracted from the liver taken out above were loaded in RIPA medium (1 M tris-Cl (PH7.4), 1 M NaCl, 0.5 M EDTA, NP-40, 10% sodium deoxycholate, 10% SDS), followed by lysis with a homogenizer. After the centrifugation, the supernatant was collected, followed by SDS-PAGE and Western blotting. The phosphorylated JNK and the total JNK were quantified by Western blotting by the same manner as described in Example 5.
# [3] = tested on: reduced glutathione (GSH) in mouse derived liver cells; test: Intracellular reduced glutathione (GSH) level, GSH-Glo Glutathione Assay, in mouse derived liver cells; type: cell-based; conditions: FIG. 6
# Experimental: The metabolizing activity of liver cells on acetaminophen according to the treatment of TNP was investigated.
# Particularly, the level of the reduced glutathione (GSH) in the mouse derived liver cells treated with acetaminophen and TNP by the same manner as described in Experimental Example 2 was measured. The measurement of the reduced glutathione was performed by using GSH-Glo Glutathione Assay kit (Promega) with Tristar2 LB 942 plate reader.
# [4] = tested on: human embryonic stem cell-derived liver cells; test: Acetaminophen caused apoptosis (cell survival rate, trypan blue) in human embryonic stem cell-derived liver cells; type: cell-based; conditions: hESC-derived liver cells; acetaminophen 25 mM together with TNP 100 μM, 18 hours; FIG. 2
# Experimental: Particularly, CHA-hESC cell line was cultured in the conditioned medium with feeder-free system for 3 days to be confluent. Upon completion of the culture, the hESC cells were cultured in RPMI-1640 (Hyclone, USA) supplemented with 50 ng/ml of Activin A (Peprotech, USA) for 5 days to induce the differentiation. The differentiated cells were cultured in the hepatocyte culture medium (HCM; Lonza, USA) supplemented with 30 ng/ml of fibroblast growth factor 4 (Peprotech) and 20 ng/ml of bone morphogenetic protein 2 (BMP2; Peprotech) for 5 days. Then, the cells were further cultured in the hepatocyte culture medium supplemented with 20 ng/ml of hepatocyte growth factor (HGF; Peprotech) for another 5 days to induce the differentiation of hESC into hepatocytes. The differentiated hepatocytes were cultured in the hepatocyte culture medium supplemented with 10 ng/ml of oncostatin M (R&D Systems, USA) and 0.1 μM of dexamethasone (Sigma) for 5 days to induce maturation of the hepatocytes. At last, the mature hepatocytes were obtained. […]
# Particularly, the liver cells on the 19th day from the differentiation from human stem cells were distributed in a 6 well plate at the concentration of 90% each well. […] This experiment was performed in triplicate and the cell survival rate was analyzed based on the results. […] The maximum limits of significance were determined as p<0.05.
# [5] = tested on: mouse derived liver cells; test: Acetaminophen caused apoptosis (cell survival rate) in mouse derived liver cells; type: cell-based; conditions: acetaminophen 25 mM together with TNP 100 μM, 18 hours, FIG. 3
# Text: Particularly, the male C57BL/6J mouse at 10˜12 weeks was anesthetized by administrating Avertin via intraperitoneal injection, and the abdomen was opened. 24 gauge catheter was inserted in the portal vein to perfuse with a perfusion solution (1.42 M Nacl, 0.067 M Kcl, 0.1 M HEPES PH 7.4, 0.05 M EGTA). Then, a digestion solution comprising collagenase (Worthington, USA) was circulated. After the liver cells were digested, the mesenteric membrane was peeled off to separate liver cells, followed by filtering with nylon mesh. The filtrate was centrifuged at 100×g for 3 minutes. The supernatant was discarded and the precipitated liver cells were suspended in HBSS buffer (Hanks' Balanced salt solution, WelGene), followed by centrifugation. The precipitated liver cells were centrifuged at 2400 rpm for 10 minutes in Percol solution (autoclaved percoll (Sigma), 10×PBS, 1 M HEPES pH 7.4). The supernatant was discarded and the precipitated liver cells were suspended in HBSS buffer (Hanks' Balanced salt solution, WelGene), followed by centrifugation again at 100×g. […]
# Particularly, the mouse derived liver cells were distributed in a 6 well plate at the concentration of 100% each well. The cell survival rate was calculated by the same manner as described in Experimental Example 1. […] The maximum limits of significance were determined as p<0.05.
# male C57BL/6J mouse [6] = test: Liver toxicity in acetaminophen treated mouse model: histopathological analysis and blood analysis (AST and ALT); type: in vivo; conditions: acetaminophen 500 mg/kg orally, TNP 10 mg/kg intraperitoneal, 6 hours later
# Experimental: as §2, §3
# [7] = tested on: human hepatoma cell line HepG2; test: Acetaminophen caused apoptosis (cell survival rate) in human hepatoma cell line HepG2; type: cell-based; conditions: acetaminophen 25 mM together with TNP 100 μM, 18 hours, FIGS. 4 and 5
# Experimental: The human hepatoma cell line HepG2 was distributed in a 6 well plate precoated with gelatin at the density of 1×10^6 cells/ml, followed by culture for 24 hours for cell adhesion. The culture medium herein was DMEM (Biowest) supplemented with 10% FBS, 10 nM dexamethasone, 10 nM insulin, and penicillin/streptomycin (100 μg/ml). The cells were cultured in a 37° C. incubator under the control of temperature and humidity with supplying a mixed gas containing CO2 by 5%.
# The changes in acetaminophen caused apoptosis according to the treatment of TNP were investigated in the human hepatoma cell line HepG2 cultured by the same manner as described in Example 3.
# Particularly, the human hepatoma cell line HepG2 was distributed in a 6 well plate at the concentration of 90% each well. The cell survival rate was calculated by the same manner as described in Experimental Example 1. All the statistic treatments in this invention were presented as mean±SD and the statistic analysis was performed by using Student's t-test. The maximum limits of significance were determined as p<0.05.
# phosphorylated JNK [8] = test: JNK phosphorylation (Western blotting) in mouse derived liver cells; type: cell-based; conditions: acetaminophen together with TNP, FIG. 7
# Experimental: as §1
# Particularly, the mouse derived liver cells treated with acetaminophen and TNP by the same manner as described in Experimental Example 2 were obtained. Cell extract was prepared for protein assay. Then, SDS-PAGE and Western blotting were performed. The cells were lysed in 10 ml of SDS buffer (50 mM Tris-HCl, 1% IGEPAL CA-630, 0.25% deoxycholic acid, 150 mM NaCl, 1 mM ethylene-diamine tetra acetic acid, 1 mM NaF, and 0.1% sodium dodecyl sulfate, pH 7.4) containing protease inhibitor cocktail (Complete Mini, Roche, Germany). The cell lysate was placed in ice for 20 minutes, followed by centrifugation at 4° C., at 13000 rpm, for 10 minutes. Upon completion of the centrifugation, the protein in the supernatant was quantified (Bio-Rad Laboratories, USA). 50 μg of the protein was loaded for SDS-PAGE (SDS-polyacrylamide gel electrophoresis). The electrophoresed protein was transferred onto Immobilon-P transfer membrane (Millipore Corporate, USA) by using electroblotting. The membrane was then loaded in TBS (Tris-buffered saline) containing 0.1% Tween 20 and 10% milk powder, followed by blocking for 1 hour. […] The activity was analyzed by using Image J software (version 1.37, NIH, USA).
# male C57BL/6J mouse [9] = test: Individual survival rate in acetaminophen treated mouse model; type: in vivo; conditions: acetaminophen 500 mg/kg orally, then TNP 10 mg/kg intraperitoneal, FIG. 9
# Experimental: The inventors investigated whether or not TNP had the activity of protecting liver cells from the toxicity caused by acetaminophen in an animal model.
# Particularly, the male C57BL/6J mouse at 8˜10 weeks was orally administered with 500 mg/kg of acetaminophen (Sigma) dissolved in water. Then, the mouse was administered with 10 mg/kg of TNP (Calbiocham) dissolved in olive oil (Sigma) via intraperitoneal injection, followed by investigation of individual survival rate. Statistical analysis was performed by Kaplan-Meier survival analysis, and the maximum limit of the significance was determined as p<0.05.
smiles,measurement,setting,value
"O=[N+]([O-])c1ccc(CNc2nc(NCc3cccc(C(F)(F)F)c3)nc3[nH]cnc23)cc1 [TNP, N2-(m-Trifluorobenzyl), N6-(p-nitrobenzyl)purine]",phosphorylated JNK signal increased by the acetaminophen caused stress response,phosphorylated JNK [1],significantly suppressed
same,increase of phosphorylated JNK signal in liver tissue,phosphorylated JNK [2],significantly suppressed
same,decrease of the reduced glutathione caused by acetaminophen,[3]; acetaminophen together with TNP,back to increase
same,reduced glutathione concentration in the liver cells,[3]; treatment of TNP alone,increased
same,apoptosis of liver cells caused by acetaminophen,[4],significantly suppressed
same,apoptosis of liver cells caused by acetaminophen,[5],significantly suppressed
same,level of ALT (liver toxicity serum index),"male C57BL/6J mouse [6]; mouse serum, FIG. 11",significantly decreased
same,level of AST (liver toxicity serum index),"male C57BL/6J mouse [6]; mouse serum, FIG. 11",significantly decreased
same,necrosis in liver tissue (histopathological analysis),"male C57BL/6J mouse [6]; mouse, FIG. 10",only minor necrosis
same,apoptosis of liver cells caused by acetaminophen,[7],significantly suppressed
same,phosphorylated JNK signal increased by the acetaminophen caused stress response,phosphorylated JNK [8],significantly suppressed
same,individual survival rate,male C57BL/6J mouse [9],effect of protecting a mouse from the acetaminophen caused liver toxicity
